The record followed here is patent publication US20190045783A1, “SUBSTITUTED IMIDAZOLYLCARBOXAMIDES AS PESTICIDES” (BAYER CROPSCIENCE AKTIENGESELLSCHAFT, priority 2016, published 2019).

The subject of data set [1] is green peach aphids (Myzus persicae). The data set can be described thus: Myzus persicae oral test (MYZUPE O), comparison with prior art. The format is in vivo. Conditions: Myzus persicae, po, 120 h, MYZUPE O, 5 dat, read-out: % efficacy. How it is done: Myzus persicae—Oral Test (MYZUPE O)
(§1) Solvent: 100 parts by weight of acetone
50 μl of the active compound preparation are transferred into microtitre plates and made up to a final volume of 200 μl with 150 μl of IPL41 insect medium (33%+15% sugar). Subsequently, the plates are sealed with parafilm, which a mixed population of green peach aphids (Myzus persicae) within a second microtitre plate is able to puncture and imbibe the solution through it.
(§2) After the desired period of time (dat), the efficacy in % is determined. 100% means that all the aphids have been killed; 0% means that no aphids have been killed.

In data set [2] the test system is green peach aphid (Myzus persicae). The data set can be described thus: Myzus persicae spray test (bell pepper plants). The format is in vivo. Particulars: application rate 20 ppm, after 6 days, 100% = all aphids killed. The protocol:
(§3) Myzus persicae—Spray Test
Solvent: 14 parts by weight of dimethylformamide
(§4) Emulsifier: alkylaryl polyglycol ether
If the addition of ammonium salts or/and penetrants is required, these are each added in a concentration of 1000 ppm to the formulation solution.
Bell pepper plants (Capsicum annuum) severely infested with the green peach aphid (Myzus persicae) are treated by spraying with the active compound formulation in the desired concentration.
After 6 days, the kill in % is determined. 100% means that all of the aphids have been killed; 0% means that none of the aphids have been killed.

Data set [3] has as its system green peach aphids (Myzus persicae). Put plainly: Myzus persicae oral test. The data set is classed as in vivo. Particulars: application rate 20 ppm, after 5 days, oral, 100% = all aphids killed; for pest or weed control at 20 ppm: Myzus persicae, 120 h, read-out: efficacy in %. The protocol: as §1
Subsequently, the plates are sealed with parafilm, which a mixed population of green peach aphids (Myzus persicae) within a second microtitre plate is able to puncture and imbibe the solution through it.
After 5 days, the efficacy in % is determined. 100% means that all the aphids have been killed; 0% means that no aphids have been killed.

A short description of data set [4]: log P by HPLC on reversed-phase column (C18), EEC directive 79/831 Annex V.A8. The data set is classed as physicochemical. Conditions: for chromatographic logP: neutral range, pH 7.8, HPLC C18, 43° C.; for logP [n]: pH 7.8.
The test system of data set [5] is green peach aphid (Myzus persicae). Put plainly: Myzus persicae spray test (Chinese cabbage leaf discs). The format is in vivo. Conditions: application rate 500 g/ha, after 5-6 days, Chinese cabbage leaf discs, 100% = all aphids killed; for pest or weed control at 500 g/ha: Myzus persicae, foliar, read-out: efficacy in %. The protocol:
as §3
To produce a suitable active ingredient formulation, 1 part by weight of active ingredient is dissolved with the stated parts by weight of solvent and made up with water containing an emulsifier concentration of 1000 ppm until the desired concentration is attained. To produce further test concentrations, the formulation is diluted with emulsifier-containing water.
After 5-6 days, the efficacy in % is determined. 100% means that all the aphids have been killed; 0% means that no aphids have been killed.

For data set [6], the system named is greenhouse red spider mite (Tetranychus urticae). The data set can be described thus: Tetranychus urticae spray test, OP-resistant. The data set is classed as in vivo. Conditions: application rate 500 g/ha, after 6 days, bean leaf discs; 100% = all spider mites killed. The protocol: Tetranychus urticae—Spray Test, OP-Resistant
After 6 days, the efficacy in % is determined. 100% means that all the spider mites have been killed; 0% means that no spider mites have been killed.

The test system of data set [7] is engorged adult female cattle ticks (Boophilus microplus). Put plainly: Boophilus microplus injection test. The format is in vivo. Conditions: 20 μg/animal, assessed after 7 days, 100% = no tick laid fertile eggs. The protocol:
Boophilus microplus—Injection Test
Solvent: dimethyl sulphoxide
To produce a suitable preparation of active compound, 10 mg of active compound are mixed with 0.5 ml of solvent and the concentrate is diluted with solvent to the desired concentration.
1 μl of the active compound solution is injected into the abdomen of 5 engorged adult female cattle ticks (Boophilus microplus). The animals are transferred into dishes and kept in a climate-controlled room.
Efficacy is assessed after 7 days by laying of fertile eggs. Eggs which are not visibly fertile are stored in a climate-controlled cabinet until the larvae hatch after about 42 days. An efficacy of 100% means that none of the ticks has laid any fertile eggs; 0% means that all the eggs are fertile.

Data set [8] deals with green peach aphid (Myzus persicae). Put plainly: Myzus persicae spray test (MYZUPE), comparison with prior art. The data set is classed as in vivo. Conditions: Myzus persicae, 120 h; MYZUPE, 100 g of ai/ha, 5 dat; read-out: % efficacy. The protocol:
Myzus persicae—Spray Test (MYZUPE)
as §4, §2

Data set [9] concerns larvae of the mustard beetle (Phaedon cochleariae). Conditions: application rate 500 g/ha, after 7 days, Chinese cabbage leaf discs; 100% = all beetle larvae killed.
Experimental: Phaedon cochleariae—Spray Test
After 7 days, the efficacy in % is determined. 100% means that all the beetle larvae have been killed; 0% means that no beetle larvae have been killed.
For data set [10], the system named is caterpillars of the armyworm (Spodoptera frugiperda). Particulars: application rate 500 g/ha, after 7 days, maize leaf discs; 100% = all caterpillars killed. The protocol: Spodoptera Frugiperda—Spray Test
as §4
To produce further test concentrations, the formulation is diluted with emulsifier-containing water.
After 7 days, the efficacy in % is determined. 100% means that all the caterpillars have been killed; 0% means that no caterpillar has been killed.

Setting [11] is: reversed-phase HPLC column (C18), Table 1, read-out: logP [n].

Each structure is given as a SMILES string. Read-outs that look alike come from different tables or passages of the source.

On to `CN(C(=O)c1cnc(C2OCCCO2)n1C)c1cccnc1` [I-1-006], for which, in [1], the Emax at 0.8 ppm was determined as 100% and the Emax at 4 ppm is 100%. For the same compound, the “kill in % (efficacy)” value in data set [2] is listed as 98%. Also, in data set [3], the pest or weed control at 20 ppm was 100%. In [4] (setting [11]), the chromatographic logP was found to be 0.92.
As for `CN(C(=O)c1cnc(/C=N/OCC2CC2)n1C)c1cccnc1` [I-1-008, 2-[(E)-(Cyclopropylmethoxyimino)methyl]-N,1-dimethyl-N-(pyridin-3-yl)-1H-imidazole-5-carboxamide], the pest or weed control at 500 g/ha in [5] is 100%. This compound also showed an efficacy in % in data set [6] of 90%. The pest or weed control at 20 ppm in data set [3] was determined as 100%. The chromatographic logP in data set [4] (reversed-phase HPLC column (C18), preparation examples, read-out: log P[n]) worked out at 1.78.
Consider `CN(C(=O)c1cnc(/C=N/OCc2ccc(Cl)cc2)n1C)c1cccnc1` [I-1-010], for which the efficacy in % in [5], in data set [6] and in [3] was 90% each time. Further, the “logP [n]” value in data set [4] stood at 2.43.
As for `CN(C(=O)c1cnc(/C=N/OCC(F)(F)F)n1C)c1cccnc1` [I-1-031], the results for the efficacy in % in [5] and in data set [3] were 90% and 100%, respectively. Besides, in [4], the “logP [n]” value came out at 1.68. In addition, the “efficacy (laying of fertile eggs)” value in data set [7] was 80%.
On to `CN(C)C(=O)c1ncc(C(=O)N(C)c2cccnc2)n1C` [I-1-033], for which, in data set [5], the pest or weed control at 500 g/ha was 100%. In data set [1], the Emax at 0.8 ppm turned out to be 100% and the Emax at 4 ppm came out at 100%. Also, in [3], the pest or weed control at 20 ppm was 100%. Also, the chromatographic logP in data set [4] (setting [11]) is 0.6. Further, the Emax at 100 g/ha in data set [8] came out at 90%.
Take `CN(C(=O)c1cnc(/C=N/OC(C)(C)C)n1C)c1cccnc1` [I-1-037]: the efficacy in % in data set [5] and in [3] was 100% throughout. Further, the “logP [n]” value in [4] is recorded as 1.99. Moreover, the “efficacy (laying of fertile eggs)” value in [7] came out at 90%.
With `CCN(C(=O)c1cnc(C=O)n1C)c1cccnc1` [I-1-039], the efficacy in % in data set [9] was 100%; in data set [3], 100%; in data set [10], 83%. Also, the “logP [n]” value in data set [4] is on record as 0.97.
In the case of `CCN(C(=O)c1cnc(C=NN(C)C(=O)OC)n1C)c1cccnc1` [I-1-045], in data set [5], the pest or weed control at 500 g/ha was determined as 90%. Also, the Emax at 4 ppm in data set [1] was 100%. Also, the pest or weed control at 20 ppm in data set [3] came to 100%. In addition, the chromatographic logP in [4] (Table 1, read-out: logP [n]) was determined as 1.28. Moreover, the Emax at 100 g/ha in data set [8] worked out at 90%.
Take `CN(C(=O)c1cnc(C(=O)Nc2ccccc2)n1C)c1cccnc1` [I-1-047]: the pest or weed control at 500 g/ha in data set [5] stood at 100%. Moreover, the Emax at 4 ppm in data set [1] worked out at 100%. The pest or weed control at 20 ppm in data set [3] worked out at 100%. Further, the chromatographic logP in data set [4] (setting [11]) worked out at 1.82. For the same compound, the Emax at 100 g/ha in [8] is 90%.
For `CN(C(=O)c1cnc(C(=O)NCc2ccccc2)n1C)c1cccnc1` [I-1-050], the pest or weed control at 500 g/ha in [5] amounted to 90%. Also, in data set [1], the Emax at 0.8 ppm turned out to be 90% and the Emax at 4 ppm turned out to be 90%. Further, the pest or weed control at 20 ppm in [3] was found to be 100%. For the same compound, the chromatographic logP in [4] (setting [11]) was found to be 1.75. In addition, in data set [8], the Emax at 100 g/ha stood at 90%.
As for `CN(C(=O)c1cnc(C(=O)N2CCOCC2)n1C)c1cccnc1` [I-1-059], in data set [5], the pest or weed control at 500 g/ha was determined as 100%. The Emax at 4 ppm in data set [1] turned out to be 100%. In data set [3], the pest or weed control at 20 ppm amounted to 100%. Moreover, the chromatographic logP in data set [4] (setting [11]) stood at 0.73. In addition, the Emax at 100 g/ha in data set [8] was determined as 100%.
As to `CCn1c(C(=O)N(C)c2cccnc2)cnc1C(=O)N(C)C` [I-1-074], in data set [5], the pest or weed control at 500 g/ha turned out to be 100%. For the same compound, in [1], the Emax at 0.8 ppm was 100% and the Emax at 4 ppm came out at 100%. The pest or weed control at 20 ppm in [3] is 90%. In addition, the chromatographic logP in [4] (setting [11]) amounted to 0.86. In addition, the Emax at 100 g/ha in [8] was 90%.
As for `CN(C(=O)c1cnc(C(=O)NCC#N)n1C)c1cccnc1` [I-1-076], the pest or weed control at 500 g/ha in data set [5] is 100%. Further, in [1], the Emax at 0.8 ppm is 90% and the Emax at 4 ppm is 90%. Further, in data set [6], the efficacy in % came to 90%. Besides, in [3], the pest or weed control at 20 ppm turned out to be 100%. In data set [4] (setting [11]), the chromatographic logP is 0.78. Besides, the Emax at 100 g/ha in [8] was 90%.
